Data reported in ChEMBL document CHEMBL1124910, “Inhibition of human leukocyte elastase. 1. Inhibition by C-7-substituted cephalosporin tert-butyl esters” (J Med Chem, 1990).

Assays:
Neutrophil elastase [1] = molecular target: T1, Neutrophil elastase (Homo sapiens, UniProt P08246); test: Inhibitory concentration which is required to cause 50% inhibition of human leukocyte elastase (HLE) enzyme
T1 sequence (P08246 whole entry): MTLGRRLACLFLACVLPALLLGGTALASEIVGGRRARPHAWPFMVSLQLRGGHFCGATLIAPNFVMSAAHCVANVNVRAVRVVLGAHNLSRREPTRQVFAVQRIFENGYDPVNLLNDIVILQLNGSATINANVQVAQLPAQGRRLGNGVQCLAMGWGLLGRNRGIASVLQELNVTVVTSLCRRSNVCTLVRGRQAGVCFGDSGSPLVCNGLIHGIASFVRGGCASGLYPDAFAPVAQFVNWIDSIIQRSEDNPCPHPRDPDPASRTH

Neutrophil elastase [2] = molecular target: T1, Neutrophil elastase; test: Inhibitory concentration which is required to cause 50% inhibition of human leukocyte elastase (HLE) enzyme; NVT indicates nonvalid test
[3] = molecular target: T2, Neutrophil elastase (Homo sapiens) (UniProt P08246)
T2 sequence (whole entry): T1 sequence (P08246 whole entry)
Description: Second-order rate constant (Kobs/[I]) for inactivation of Human Leukocyte Elastase was determined

Pancreatic elastase [4] = molecular target: T3, Pancreatic elastase (Sus scrofa, UniProt P08419+P00772); test: Inhibitory concentration which is required to cause 50% inhibition of porcine pancreatic elastase (PPE); format: protein assay
[5] = molecular target: T2, Neutrophil elastase (Homo sapiens); test: Second-order rate constant (Kobs/[I]) for inactivation was determined
Serine protease 1 [6] = molecular target: T4, Serine protease 1 (Bos taurus, UniProt P00760); test: Inhibitory concentration which is required to cause 50% inhibition of bovine trypsin (Trp)
T4 sequence (P00760 whole entry): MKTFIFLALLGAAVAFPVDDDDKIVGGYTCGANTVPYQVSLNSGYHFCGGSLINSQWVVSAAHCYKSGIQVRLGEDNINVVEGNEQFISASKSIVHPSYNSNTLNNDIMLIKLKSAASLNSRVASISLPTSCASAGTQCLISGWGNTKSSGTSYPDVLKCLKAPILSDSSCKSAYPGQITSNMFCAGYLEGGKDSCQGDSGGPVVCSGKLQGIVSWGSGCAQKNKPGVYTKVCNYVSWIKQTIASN

Pancreatic elastase [7] = molecular target: T3, Pancreatic elastase; test: Inhibitory concentration which is required to cause 50% inhibition of Porcine pancreatic elastase (PPE) enzyme; format: protein assay
Chymotrypsinogen A [8] = molecular target: T5, Chymotrypsinogen A (Bos taurus, UniProt P00766); test: Inhibitory concentration which is required to cause 50% inhibition of alpha-chymotrypsin enzyme
Serine protease 1 [9] = molecular target: T4, Serine protease 1; test: Inhibitory concentration which is required to cause 50% inhibition of Trypsin
Chymotrypsinogen A [10] = molecular target: T5, Chymotrypsinogen A; test: Inhibitory concentration which is required to cause 50% inhibition of bovine alpha-chymotrypsin (ChT)

CCC(C)O[C@H]1C(=O)N2C(C(=O)OC(C)(C)C)=C(COC(C)=O)CS(=O)(=O)[C@H]12 (some centres undefined) showed an IC50 (Neutrophil elastase [1]) of 28 µM.
With CC(=O)OCC1=C(C(=O)OC(C)(C)C)N2C(=O)[C@H](OS(=O)(=O)c3ccc(C)cc3)[C@H]2SC1 the IC50 (Neutrophil elastase [2]) was “Non valid test”.
CO[C@H]1C(=O)N2C(C(=O)OC(C)(C)C)=C(COC(C)=O)CS(=O)(=O)[C@H]12 gave a K obs / 1 [3] of 19000 M⁻¹ s⁻¹ and an IC50 (Neutrophil elastase [1]) of 1 µM.
CC(=O)OCC1=C(C(=O)OC(C)(C)C)N2C(=O)[C@@H](N)[C@H]2SC1 was tested, and the IC50 (Neutrophil elastase [1]) was greater than 40 µM.
Work on O=C(OCc1ccccc1)[C@H]1/C(=C/CO)O[C@@H]2CC(=O)N21 yielded an IC50 (Neutrophil elastase [1]) of 4 µM.
With CCCC[C@H]1C(=O)N2C(C(=O)OC(C)(C)C)=C(COC(C)=O)CS(=O)(=O)[C@H]12 the IC50 (Neutrophil elastase [1]) was 40 µM.
With CC(=O)OCC1=C(C(=O)OC(C)(C)C)N2C(=O)[C@H](Cl)[C@H]2S(=O)(=O)C1 the K obs / 1 [3] was 161000 M⁻¹ s⁻¹ and the IC50 (Neutrophil elastase [1]) was 0.04 µM.
CC(=O)OCC1=C(C(=O)OC(C)(C)C)N2C(=O)[C@H](OC=O)[C@H]2S(=O)(=O)C1 showed an IC50 (Pancreatic elastase [4]) of 0.4 µM, a K obs / 1 [5] of 59000 M⁻¹ s⁻¹ and an IC50 (Serine protease 1 [6]) greater than 40 µM. The IC50 (Neutrophil elastase [1]) was 0.3 µM.
CCCCO[C@H]1C(=O)N2C(C(=O)OC(C)(C)C)=C(COC(C)=O)CS(=O)(=O)[C@H]12 gave an IC50 (Neutrophil elastase [1]) greater than 40 µM.
CC(=O)OCC1=C(C(=O)OC(C)(C)C)N2C(=O)[C@H](OCCc3ccccc3)[C@H]2S(=O)(=O)C1 showed an IC50 (Neutrophil elastase [1]) of 5 µM.
Compound CC(=O)OCC1=C(C(=O)OC(C)(C)C)N2C(=O)[C@H](OC(=O)Cc3ccccc3)[C@H]2S(=O)(=O)C1 has an IC50 (Pancreatic elastase [7]) of 20 µM, an IC50 (Chymotrypsinogen A [8]) of 4 µM and an IC50 (Serine protease 1 [9]) greater than 40 µM. It also gave an IC50 (Neutrophil elastase [1]) of 10 µM.
Compound CC(=O)OCC1=C(C(=O)OC(C)(C)C)N2C(=O)[C@H](OC(=O)c3ccccc3)[C@H]2S(=O)(=O)C1 has an IC50 (Neutrophil elastase [1]) greater than 40 µM.
CC(=O)OCC1=C(C(=O)OC(C)(C)C)N2C(=O)[C@H](OC(=O)COc3ccccc3)[C@H]2S(=O)(=O)C1 was tested, and the IC50 (Neutrophil elastase [1]) was 6 µM.
In the case of CO[C@H]1C(=O)N2C(C(=O)OC(C)(C)C)=C(COC(C)=O)C[S@@+]([O-])[C@H]12, the IC50 (Neutrophil elastase [1]) is reported as greater than 40 µM.
O=C(O)[C@H]1/C(=C/CO)O[C@@H]2CC(=O)N21 [CLAVULANIC ACID] showed an IC50 (Neutrophil elastase [1]) of less than 40 µM.
CCC(=O)O[C@H]1C(=O)N2C(C(=O)OC(C)(C)C)=C(COC(C)=O)CS(=O)(=O)[C@H]12 gave a K obs / 1 [3] of 80 M⁻¹ s⁻¹ and an IC50 (Neutrophil elastase [1]) of 10 µM.
With CO[C@@H]1C(=O)N2C(C(=O)OC(C)(C)C)=C(COC(C)=O)CS(=O)(=O)[C@H]12 the IC50 (Neutrophil elastase [1]) was greater than 40 µM.
CCO[C@H]1C(=O)N2C(C(=O)OC(C)(C)C)=C(COC(C)=O)CS[C@H]12 was tested, and the IC50 (Neutrophil elastase [1]) was greater than 40 µM.
CC(=O)OCC1=C(C(=O)OC(C)(C)C)N2C(=O)C[C@H]2S(=O)(=O)C1 gave an IC50 (Neutrophil elastase [1]) greater than 40 µM.
With CC(=O)OCC1=C(C(=O)OC(C)(C)C)N2C(=O)[C@H](OC(C)=O)[C@H]2S(=O)(=O)C1 the IC50 (Pancreatic elastase [4]) was 2 µM, the K obs / 1 [3] was 950 M⁻¹ s⁻¹ and the IC50 (Chymotrypsinogen A [10]) was greater than 40 µM. For the same compound, the IC50 (Serine protease 1 [9]) was greater than 40 µM and the IC50 (Neutrophil elastase [1]) was 6 µM.
CC(=O)OCC1=C(C(=O)OC(C)(C)C)N2C(=O)[C@H](NC(=O)Cc3cccs3)[C@H]2S(=O)(=O)C1 gave an IC50 (Neutrophil elastase [1]) greater than 40 µM.
In the case of CCCCO[C@H]1C(=O)N2C(C(=O)OC(C)(C)C)=C(COC(C)=O)CS[C@H]12, the IC50 (Neutrophil elastase [1]) is reported as greater than 40 µM.
CCO[C@H]1C(=O)N2C(C(=O)OC(C)(C)C)=C(COC(C)=O)C[S+]([O-])[C@H]12 (stereo in doubt; 6b) showed an IC50 (Neutrophil elastase [1]) of 40 µM.
Work on CC(=O)OCC1=C(C(=O)OC(C)(C)C)N2C(=O)[C@H](OCc3ccccc3)[C@H]2S(=O)(=O)C1 yielded an IC50 (Neutrophil elastase [1]) greater than 10 µM.
CC(=O)OCC1=C(C(=O)OC(C)(C)C)N2C(=O)[C@H](F)[C@H]2SC1 showed an IC50 (Neutrophil elastase [1]) of 20 µM.
CC(=O)OCC1=C(C(=O)OC(C)(C)C)N2C(=O)[C@H](Cl)[C@H]2SC1 gave an IC50 (Neutrophil elastase [1]) of 2 µM.
Compound CCCO[C@H]1C(=O)N2C(C(=O)OC(C)(C)C)=C(COC(C)=O)CS[C@H]12 has an IC50 (Neutrophil elastase [1]) greater than 40 µM.
CO[C@H]1C(=O)N2C(C(=O)OC(C)(C)C)=C(COC(C)=O)CS[C@H]12 gave an IC50 (Neutrophil elastase [1]) of 10 µM.
Compound CCC(=O)O[C@H]1C(=O)N2C(C(=O)OC(C)(C)C)=C(COC(C)=O)CS[C@H]12 has an IC50 (Neutrophil elastase [1]) of 36 µM.
Work on CCO[C@H]1C(=O)N2C(C(=O)OC(C)(C)C)=C(COC(C)=O)C[S+]([O-])[C@H]12 (stereo in doubt; 7b) yielded an IC50 (Neutrophil elastase [1]) greater than 40 µM.
For CC(=O)OCC1=C(C(=O)OC(C)(C)C)N2C(=O)[C@H](NC(=O)C(F)(F)F)[C@H]2S(=O)(=O)C1, the IC50 (Neutrophil elastase [1]) was 2 µM.
CC(=O)OCC1=C(C(=O)OC(C)(C)C)N2C(=O)[C@H](NC=O)[C@H]2S(=O)(=O)C1 gave a K obs / 1 [5] of 1200 M⁻¹ s⁻¹ and an IC50 (Neutrophil elastase [1]) of 4 µM.
Compound CC(=O)OCC1=C(C(=O)OC(C)(C)C)N2C(=O)[C@H](F)[C@H]2S(=O)(=O)C1 has an IC50 (Neutrophil elastase [1]) of 0.06 µM.
CCC(C)O[C@H]1C(=O)N2C(C(=O)OC(C)(C)C)=C(COC(C)=O)CS[C@H]12 (some centres undefined) was tested, and the IC50 (Neutrophil elastase [1]) was greater than 40 µM.
Work on CC(=O)OCC1=C(C(=O)OC(C)(C)C)N2C(=O)[C@@H](NC(=O)Cc3cccs3)[C@H]2S(=O)(=O)C1 yielded an IC50 (Neutrophil elastase [1]) greater than 40 µM.
In the case of CNC(=O)O[C@H]1C(=O)N2C(C(=O)OC(C)(C)C)=C(COC(C)=O)CS(=O)(=O)[C@H]12, the K obs / 1 [3] is reported as 180 M⁻¹ s⁻¹ and the IC50 (Neutrophil elastase [1]) is reported as 1 µM.
COC(=O)N[C@H]1C(=O)N2C(C(=O)OC(C)(C)C)=C(COC(C)=O)CS(=O)(=O)[C@H]12 showed a K obs / 1 [5] of 1600 M⁻¹ s⁻¹ and an IC50 (Neutrophil elastase [1]) of 4 µM.
In the case of CO[C@H]1C(=O)N2C(C(=O)OC(C)(C)C)=C(COC(C)=O)C[S@+]([O-])[C@H]12, the K obs / 1 [5] is reported as 500 M⁻¹ s⁻¹ and the IC50 (Neutrophil elastase [1]) is reported as 4 µM.
CC(=O)OCC1=C(C(=O)OC(C)(C)C)N2C(=O)[C@@H](NC(=O)C(F)(F)F)[C@H]2S(=O)(=O)C1 was tested, and the IC50 (Neutrophil elastase [1]) was greater than 40 µM.
CC(=O)OCC1=C(C(=O)OC(C)(C)C)N2C(=O)[C@H](Oc3ccccc3)[C@H]2S(=O)(=O)C1 showed a K obs / 1 [3] of 720 M⁻¹ s⁻¹ and an IC50 (Neutrophil elastase [1]) of 1 µM.
CCC(CC)O[C@H]1C(=O)N2C(C(=O)OC(C)(C)C)=C(COC(C)=O)CS(=O)(=O)[C@H]12 gave an IC50 (Neutrophil elastase [1]) greater than 40 µM.
